# Assay results reported in patent US10449200B2, “Combined inhibition of the vitamin D receptor and poly(ADP) ribose polymerase (PARP) in the treatment of cancer” (Institute for Cancer Research, priority 2014, dated 2019).
# What was measured:
# [1] = system: Panc1 cells; assay: Rucaparib clonogenic assay; type: cell-based; settings: Homo sapiens
# Protocol: (§1) Cell viability assays. For clonogenic assays, 1000 cells per well were seeded into 6 well plates on day 0. Cells were treated with gemcitabine at various doses on day 1 for 24 hours, Gemcitabine was washed out on day 2, and cells were allowed to grow for a subsequent 10 days before being fixed (10% methanol+10% acetic acid) and stained with crystal violet (0.4% in 20% ethanol) for colony counting and quantitation. For Rucaparib clonogenic assays, the drug was added at various doses 24 hours after cell plating, and cells were allowed to grow for a subsequent 10 days in the presence of Rucaparib. For TSA clonogenic assays, the drug was added for 4 hours prior to addition of gemcitabine or vehicle for another 18 hours before drugs were washed away, and cells were allowed to grow in drug-free medium for 10 days.
# (§2) BxPC3 and Panc1 cells were transfected with control, VDR, and BRCA1 siRNAs and their sensitivity to Rucaparib treatment was compared by clonogenic survival. […] For BXPC3 cells, the IC50s after knockdown of BRCA1 and VDR were 1 and 5 uM, respectively (FIG. 6, A) compared to the control IC50 of 9 μM.
# [2] = system: BxPC3 cells; assay: Rucaparib clonogenic assay; type: cell-based; settings: Homo sapiens
# Protocol: as §1, §2
# [3] = system: BxPC3 cells; assay: Immunofluorescence of DNA damage foci (phospho-γH2AX, Rad51, 53BP1) after gemcitabine; type: cell-based, human; settings: BxPC3 VDRkd, TSA (500 nM) treatment, 4 hrs in gemcitabine (50 nM)
# Protocol: For Immunofluorescence, cells were plated onto coverslips 24 hours pre-gemcitabine treatment. At different timepoints post gemcitabine treatment, cells were permeablized, fixed (4% paraformaldehyde) and stained. Antibodies to γH2AX (Millipore; 05-636), Rad51 (a gift), and 53BP1 were used. Alexa Fluor-conjugated (488, 555, and 647 nm) secondary antibodies (Molecular probes; A-11029, A-21428, A-21247) were used at a final concentration of 1 and nuclei counterstained with DAPI. Images were captured using a 40× or 63× high NA objective mounted on a semi-automated inverted microscope (Nikon TEi) with a charge-coupled device camera (Photometrics1394) using Nikon Elements 2.0. Exposure times for antibodies were optimized for control samples and identical exposure times used for the experimental samples. Images were quantitated and analyzed using Nikon Elements 2.0. Confocal images were taken using a Leica TCS-SP8 microscope controlled by LAS software (Leica Microsystems).
# It was investigated if these repair pathways were abrogated after VDR knockdown by staining for foci formation by phospho-γH2AX, Rad51, and 53BP1, and measuring intensities after gemcitabine treatment (FIGS. 3, 4, and 5). BxPC3 (high VDR expression) and Panc1 (low VDR expression) cells were treated with gemcitabine (50 nM) for 2, 4, 8, and 18 hours, and fixed and stained for phospho-γH2AX, 53BP1, and Rad51. Foci quantitation included counting of nuclei with >5 foci and a separate measurement of the sum intensities of foci that were averaged for 5 separate immunofluorescence experiments. […] Weak but detectable phospho-γH2AX foci were visible within 4 hours of gemcitabine treatment in BxPC3 cells while it took 18 hours for foci to form in Panc1 cells (FIG. 3, A). Similarly, Rad51 foci were visible after 8 hours of gemcitabine treatment in BxPC3 cells compared to 18 hours in Panc1 cells (FIG. 3, A, FIG. 4, and FIG. 5).
"IC50 ([1]; PANC-1, Panc1, control siRNA)","IC50 ([1]; PANC-1, Panc1, knockdown of BRCA1 (siRNA))","IC50 ([1]; PANC-1, Panc1, knockdown of VDR (siRNA))","IC50 ([2]; BXPC-3, BXPC3, knockdown of BRCA1 (siRNA))","IC50 ([2]; BXPC-3, BXPC3, knockdown of VDR (siRNA))","IC50 ([2]; BXPC-3, BxPC3, control siRNA)",Compound,cells exhibiting Rad51 foci [3]
4000 nM,3.5 nM,400 nM,1000 nM,5000 nM,9000 nM,CNCc1ccc(-c2[nH]c3cc(F)cc4c3c2CCNC4=O)cc1 [Rucaparib],–
–,–,–,–,–,–,"CC(/C=C/C(=O)NO)=C\[C@@H](C)C(=O)c1ccc(N(C)C)cc1 [TSA, trichostatin A]",89%
